According to patent US4536346A, “Aralkanamidophenyl compounds” (American Cyanamid Company, priority 1983, dated 1985):

These compounds were tested against T1, fatty acyl CoA: cholesterol acyl transferase (ACAT) (Rattus norvegicus, UniProt O70536) (assay: Inhibition of enzymatic esterification of cholesterol (ACAT) in rat adrenal supernatant containing the microsomal fraction). Settings: final concentration of test compound 5.2 μg./ml., percent inhibition of the ACAT enzyme compared to control values.
T1 construct: The supernatant, containing the microsomal fraction, served as the source of the cholesterol-esterifying enzyme; from tissue; host or cells: rat adrenals (1,000 x g supernatant containing the microsomal fraction)
T1 sequence (O70536 1-545): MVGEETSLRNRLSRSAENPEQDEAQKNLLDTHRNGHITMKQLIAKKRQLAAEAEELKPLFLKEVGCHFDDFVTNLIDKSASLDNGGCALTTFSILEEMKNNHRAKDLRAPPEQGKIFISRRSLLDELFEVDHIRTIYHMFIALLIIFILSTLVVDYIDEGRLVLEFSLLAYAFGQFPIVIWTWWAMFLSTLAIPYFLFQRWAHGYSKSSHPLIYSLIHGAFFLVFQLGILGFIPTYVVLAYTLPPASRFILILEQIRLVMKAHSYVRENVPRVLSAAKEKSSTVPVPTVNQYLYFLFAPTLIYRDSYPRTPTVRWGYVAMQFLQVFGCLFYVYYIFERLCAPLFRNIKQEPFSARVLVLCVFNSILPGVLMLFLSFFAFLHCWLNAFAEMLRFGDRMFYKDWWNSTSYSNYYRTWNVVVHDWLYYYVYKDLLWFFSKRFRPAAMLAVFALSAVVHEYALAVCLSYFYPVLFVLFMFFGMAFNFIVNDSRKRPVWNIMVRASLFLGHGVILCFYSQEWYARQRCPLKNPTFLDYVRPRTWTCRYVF
Type: biochemical
Description: The compounds of the present invention were tested for their ability to inhibit the enzymatic esterification of cholesterol according to the following procedure:
Rat adrenals were homogenized in 0.2M monobasic potassium phosphate buffer, pH 7.4, and centrifuged at 1,000 times gravity for 15 minutes at 5° C. The supernatant, containing the microsomal fraction, served as the source of the cholesterol-esterifying enzyme, fatty acyl CoA: cholesterol acyl transferase (ACAT). A mixture comprising 50 parts of adrenal supernatant, 10 parts of albumin (BSA) (50 mg./ml.), […], 3 parts of test compound, and 500 parts of buffer was pre-incubated at 37° C. for 10 minutes. After treatment with 20 parts of oleoyl CoA (^14 C-0.4 μCi), the mixture was incubated at 37° C. for 10 minutes. A control mixture, omitting the test compound, was prepared and treated in the same manner. The lipids from the incubation mixture were extracted into an organic solvent and separated by thin-layer chromatography. The cholesterol ester fraction was counted in a scintillation counter. This procedure is a modification of that described by Hashimoto, et al., Life Scie., 12 (Part II), 1-12 (1973).
The results of this test on representative compounds of this invention appear in Table I. The final concentration of the test compound was 5.2 μg./ml., and the effectiveness of the compound is expressed as percent inhibition of the ACAT enzyme compared to control values.
`CCOC(=O)c1ccc(NC(=O)C=C(c2ccccc2)c2ccccc2)cc1` [p-(3,3-Diphenylacrylamido)benzoic acid, ethyl ester] was tested, and the inhibition at 5.2 µg/mL was 40%.
Compound `CC(=O)c1ccc(NC(=O)CC(c2ccc(Cl)cc2)c2ccc(Cl)cc2)cc1` [N--(4-Acetylphenyl)-3,3-bis(p-chlorophenyl)propionamide] has an inhibition at 5.2 µg/mL of 95%.
`O=C(C=C(c1ccc(Cl)cc1)c1ccc(Cl)cc1)Nc1cccc(C(=O)O)c1` [3 - [3,3-Bis(p-chlorophenyl)acrylamido]benzoic acid] was tested, and the inhibition at 5.2 µg/mL was 98%.
For `O=C(C=C(c1ccccc1)c1ccccc1)Nc1ccc(C(=O)O)cc1` [4-(3,3-Diphenylacrylamido)benzoic acid], the inhibition at 5.2 µg/mL was 66%.
Work on `COc1ccc(C(CC(=O)Nc2ccc(C(F)(F)F)cc2)c2ccc(OC)cc2)cc1` [N--(p-Trifluoromethylphenyl)-3,3-bis(4-methoxyphenyl)propionamide] yielded an inhibition at 5.2 µg/mL of 92%.
`CCOC(=O)COC(=O)c1ccc(NC(=O)C=C(c2ccc(Cl)cc2)c2ccc(Cl)cc2)cc1` [4-[p-Chloro-β-(p-chlorophenyl)cinnamamido]benzoic acid, ethyl glycolate ester] gave an inhibition at 5.2 µg/mL of 88%.
For `O=C(C=Cc1ccc(Cl)cc1)Nc1ccc(C(=O)O)cc1` [4-(p-chlorocinnamamido)benzoic acid, 4-(p-Chlorocinnamamido)benzoic acid], the inhibition at 5.2 µg/mL was 41%.
Work on `Cc1ccc(C(CC(=O)Nc2ccc(Cl)cc2)c2ccc(C)cc2)cc1` [N--(p-Chlorophenyl)-3,3-bis(p-tolyl)propionamide] yielded an inhibition at 5.2 µg/mL of 89%.
Work on `CCOC(=O)c1ccc(NC(=O)C=C(C)c2ccc(Cl)cc2)cc1` [4-(p-Chloro-β-methylcinnamamido)benzoic acid, ethyl ester] yielded an inhibition at 5.2 µg/mL of 74%.
With `COC(=O)c1cccc(NC(=O)C=C(c2ccc(Cl)cc2)c2ccc(Cl)cc2)c1` [3-[3,3-Bis(p-chlorophenyl)acrylamido]benzoic acid, methyl ester] the inhibition at 5.2 µg/mL was 94%.
Compound `O=C(C=C(c1ccccc1)c1ccc(Cl)cc1)Nc1ccc(C(=O)O)cc1` [4-(p-Chloro-β-phenylcinnamamido)benzoic acid] has an inhibition at 5.2 µg/mL of 77%.
`CCOC(=O)c1ccc(NC(=O)CCc2ccc(Cl)cc2)cc1` [4-(p-Chlorohydrocinnamamido)benzoic acid, ethyl ester] gave an inhibition at 5.2 µg/mL of 30%.
`N#Cc1ccc(NC(=O)CC(c2ccc(Cl)cc2)c2ccc(Cl)cc2)cc1` [N--(4-Cyanophenyl)-3,3-bis(p-chlorophenyl)propionamide] gave an inhibition at 5.2 µg/mL of 96%.
Compound `O=C(C=C(c1ccc(F)cc1)c1ccc(F)cc1)Nc1ccc(C(=O)O)cc1` [4-[3,3-Bis(p-fluorophenyl)acrylamido]benzoic acid] has an inhibition at 5.2 µg/mL of 79%.
In the case of `Cc1ccc(NC(=O)CC(c2ccc(Cl)cc2)c2ccc(Cl)cc2)cc1` [N--(4-Tolyl)-3,3-bis(p-chlorophenyl)propionamide], the inhibition at 5.2 µg/mL is reported as 36%.
In the case of `CCOC(=O)c1ccc(NC(=O)CC(c2ccc(C)cc2)c2ccc(C)cc2)cc1` [Ethyl 4'-[3,3-bis(4-methylphenyl)propionamido]benzoate], the inhibition at 5.2 µg/mL is reported as 95%.
Compound `CC(=O)c1ccc(NC(=O)C=C(c2ccc(Cl)cc2)c2ccc(Cl)cc2)cc1` [4'-Acetyl-3,3-bis(p-chlorophenyl)acrylanilide] has an inhibition at 5.2 µg/mL of 86%.
Work on `COC(=O)c1ccccc1NC(=O)C=C(c1ccc(Cl)cc1)c1ccc(Cl)cc1` [2-[3,3-Bis(p-chlorophenyl)acrylamido]benzoic acid, methyl ester] yielded an inhibition at 5.2 µg/mL of 71%.
`Cc1ccc(NC(=O)CC(c2ccc(C)cc2)c2ccc(C)cc2)cc1` [N--(p-Tolyl)-3,3-bis(p-tolyl)propionamide] showed an inhibition at 5.2 µg/mL of 66%.
For `O=C(C=C(c1ccc(Cl)cc1)c1ccc(Cl)cc1)Nc1ccc(C(=O)O)cc1` [4-[3,3-Bis(p-chlorophenyl)acrylamido]benzoic acid], the inhibition at 5.2 µg/mL was 91%.
`CCOC(=O)c1ccc(NC(=O)CC(c2ccc(OC)cc2)c2ccc(OC)cc2)cc1` [Ethyl 4'-[3,3-bis(4-methoxyphenyl)propionamido]benzoate] was tested, and the inhibition at 5.2 µg/mL was 91%.
Work on `Cc1ccc(C(=CC(=O)Nc2ccc(C(=O)O)cc2)c2ccccc2)cc1` [4-(p-Methyl-β-phenylcinnamamido)benzoic acid] yielded an inhibition at 5.2 µg/mL of 80%.
With `CCOC(=O)c1ccc(NC(=O)C=Cc2ccc(OC)cc2)cc1` [4-(p-Methoxycinnamamido)benzoic acid, ethyl ester] the inhibition at 5.2 µg/mL was 53%.
In the case of `O=C(CCc1ccc(Cl)cc1)Nc1ccc(C(=O)O)cc1` [4-(p-Chlorohydrocinnamamido)benzoic acid], the inhibition at 5.2 µg/mL is reported as 33%.
For `CCOC(=O)c1ccc(NC(=O)C=C(c2ccc(F)cc2)c2ccc(F)cc2)cc1` [4-[3,3-Bis(p-fluorophenyl)acrylamido]benzoic acid, ethyl ester], the inhibition at 5.2 µg/mL was 74%.
In the case of `COc1ccc(C(CC(=O)Nc2ccc(Br)cc2)c2ccc(OC)cc2)cc1` [N--(p-Bromophenyl)-3,3-bis(4-methoxyphenyl)propionamide], the inhibition at 5.2 µg/mL is reported as 79%.
In the case of `COc1ccc(C=CC(=O)Nc2ccc(C(=O)O)cc2)cc1` [4-(p-Methoxycinnamamido)benzoic acid], the inhibition at 5.2 µg/mL is reported as 20%.
For `COc1ccc(C(CC(=O)Nc2ccc([N+](=O)[O-])cc2)c2ccc(OC)cc2)cc1` [N--(p-Nitrophenyl)-3,3-bis(4-methoxyphenyl)propionamide], the inhibition at 5.2 µg/mL was 94%.
For `CCOC(=O)c1ccc(NC(=O)C=C(c2ccc(C)cc2)c2ccc(C)cc2)cc1` [4-[3,3-Di-(p-tolyl)acrylamido]benzoic acid, ethyl ester], the inhibition at 5.2 µg/mL was 97%.
Work on `CCOC(=O)c1ccc(NC(=O)C=C(c2ccc(OC)cc2)c2ccc(OC)cc2)cc1` [4-[3,3-Bis(p-methoxyphenyl)acrylamido]benzoic acid, ethyl ester] yielded an inhibition at 5.2 µg/mL of 97%.
`O=C(CC(c1ccc(Cl)cc1)c1ccc(Cl)cc1)Nc1ccc(C(=O)O)cc1` [4-[3,3-Bis(p-chlorophenyl)propionamido]benzoic acid] gave an inhibition at 5.2 µg/mL of 71%.
Work on `COc1ccc(C(CC(=O)Nc2ccc(C(=O)O)cc2)c2ccc(OC)cc2)cc1` [4'-[3,3-Bis(4-methoxyphenyl)propionamido]benzoic acid] yielded an inhibition at 5.2 µg/mL of 45%.
With `O=C(O)c1ccc(NC(=O)C(c2ccc(Cl)cc2)c2ccc(Cl)cc2)cc1` [4-[2,2-Bis(p-chlorophenyl)acetamido]benzoic acid] the inhibition at 5.2 µg/mL was 71%.
`CCOC(=O)c1ccc(NC(=O)CC(c2ccc(Cl)cc2)c2ccc(Cl)cc2)cc1` [4-[3,3-Bis(p-chlorophenyl)propionamido]benzoic acid, ethyl ester] showed an inhibition at 5.2 µg/mL of 94%.
For `O=C(CC(c1ccc(Cl)cc1)c1ccc(Cl)cc1)Nc1ccc(F)cc1` [N--(4-Fluorophenyl)-3,3-bis(p-chlorophenyl)propionamide], the inhibition at 5.2 µg/mL was 67%.
`COc1ccc(NC(=O)CC(c2ccc(OC)cc2)c2ccc(OC)cc2)cc1` [N--(p-Methoxyphenyl)-3,3-bis(4-methoxyphenyl)propionamide] was tested, and the inhibition at 5.2 µg/mL was 58%.
With `Cc1ccc(C(CC(=O)Nc2ccc(C#N)cc2)c2ccc(C)cc2)cc1` [N--(p-Cyanophenyl)-3,3-bis(p-tolyl)propionamide] the inhibition at 5.2 µg/mL was 90%.
Work on `O=C(CC(c1ccc(Cl)cc1)c1ccc(Cl)cc1)Nc1ccc(C(F)(F)F)cc1` [N--(4-Trifluoromethylphenyl)-3,3-bis(p-chlorophenyl)propionamide] yielded an inhibition at 5.2 µg/mL of 35%.
Work on `CCOC(=O)c1ccc(NC(=O)C=C(c2ccccc2)c2ccc(Cl)c([N+](=O)[O-])c2)cc1` [4-(4-Chloro-3-nitro-β-phenylcinnamamido)benzoic acid, ethyl ester] yielded an inhibition at 5.2 µg/mL of 94%.
For `COc1ccc(C(CC(=O)Nc2ccc(Cl)cc2)c2ccc(OC)cc2)cc1` [N--(p-Chlorophenyl)-3,3-bis(4-methoxyphenyl)propionamide], the inhibition at 5.2 µg/mL was 91%.
`CC(=CC(=O)Nc1ccc(C(=O)O)cc1)c1ccc(Cl)cc1` [4-(p-Chloro-β-methylcinnamamido)benzoic acid] gave an inhibition at 5.2 µg/mL of 71%.
With `COc1ccc(C(=CC(=O)Nc2ccc(C(=O)O)cc2)c2ccc(OC)cc2)cc1` [4-[3,3-Bis(p-methoxyphenyl)acrylamido]benzoic acid] the inhibition at 5.2 µg/mL was 78%.
With `CCOC(=O)c1ccc(NC(=O)C=Cc2ccc(Cl)cc2)cc1` [4-(p-Chlorocinnamamido)benzoic acid, ethyl ester] the inhibition at 5.2 µg/mL was 51%.
For `N#Cc1ccc(NC(=O)C=C(c2ccc(Cl)cc2)c2ccc(Cl)cc2)cc1` [3,3-Bis(p-chlorophenyl-4'-cyanoacrylanilide], the inhibition at 5.2 µg/mL was 96%.
